Experimental data from patent publication US20220281848A1, “PYRAZOLE-SUBSTITUTED PYRROLIDINONES AS HERBICIDES” (FMC Corporation, priority 2019, published 2022).

What was measured:
Type in all cases: in vivo
corn (Zea mays, ZEAMX) = assay: Test A pre-emergence, corn; details: after 13 d
Summary of the method: (§1)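 Seeds sown in pots of standard soil and sprayed one day later, pre-emergence, at 15.625, 62.5 or 250 g/ha in acetone/water (50:50) with 0.5% Tween 20. Grown in glasshouse at 24/16 °C, 14 h light, 65% humidity. Damage scored after 13 d (0 none, 100 total).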

[1] = system: giant foxtail (Setaria faberi, SETFA); assay: Test A pre-emergence, giant foxtail; details: after 13 d
Summary of the method: as §1

[2] = system: velvetleaf (Abutilon theophrasti, ABUTH); assay: Test A pre-emergence, velvetleaf; details: after 13 d
Summary of the method: as §1

[3] = system: barnyardgrass (Echinochloa crus-galli, ECHCG); assay: Test A post-emergence, barnyardgrass; details: after 13 d
Summary of the method: (§2)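 Visual damage at 13 d after treatment, rated from 0 (no damage) to 100 (total damage). Eight-day-old pot-grown plants had been sprayed with 15.625, 62.5 or 250 g/ha of compound in aqueous acetone (50:50) containing 0.5% Tween 20.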

[4] = system: ivy-leaved morning glory (Ipomoea hederacea, IPOHE); assay: Test A post-emergence, ivy-leaved morning glory; details: after 13 d
Summary of the method: as §2

[5] = system: redroot pigweed (Amaranthus retroflexus, AMARE); assay: Test A post-emergence, redroot pigweed; details: after 13 d
Summary of the method: as §2

[6] = system: velvetleaf (Abutilon theophrasti, ABUTH); assay: Test A post-emergence, velvetleaf; details: after 13 d
Summary of the method: as §2

wheat = assay: Test D pre-emergence, wheat seed treated with a herbicide safener; details: 100=total damage, 0=no damage
Summary of the method: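 Seeds treated with herbicide safener; sown in soil; glasshouse, 16 h light, 65% humidity. Sprayed day 1 (pre) or ~day 12 (post). Spray in 0.2% v/v adjuvant. Scored 0–100 damage: 20 DAA pre, 15 d post.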

maize = assay: Test D post-emergence, maize seed treated with a herbicide safener
Procedure: A formulation containing 50 g/L of the test chemical was prepared by dissolving the active ingredient in a mixture of organic solvents and emulsifier, details of which are provided in the table. This formulation was then mixed with a small, variable amount of acetone to aid dissolution, before addition of a 0.2% v/v aqueous solution of an adjuvant, as the aqueous diluent, to form an aqueous spray solution which contains a predetermined concentration of the active ingredient.
This aqueous spray solution was then sprayed onto plants including maize and wheat that had been seed treated with a herbicide safener, after one day's cultivation (for pre-emergence) or after about 12 days' cultivation (for post-emergence). The plants were grown from seeds sown in standard soil, placed in a glasshouse under controlled conditions (at 24/18° C. or 20/16° C., day/night; 16 h light; 65% humidity). After spray application the plants were then grown in a glasshouse under the same conditions and watered twice daily. After 15 d for post-emergence and 20 DAA for pre-emergence the test was evaluated (100=total damage to plant; 0=no damage to plant).

| SMILES | damage to plant (100=total damage; 0=no damage) ZEAMX (corn (Zea mays, ZEAMX); Pre-Emergence at 15.625 g/ha) | damage to plant (100=total damage; 0=no damage) ZEAMX (corn (Zea mays, ZEAMX); Pre-Emergence at 62.5 g/ha) | damage to plant (100=total damage; 0=no damage) ZEAMX (corn (Zea mays, ZEAMX); Pre-Emergence at 250 g/ha) | damage to plant (100=total damage; 0=no damage) SETFA ([1]; Pre-Emergence at 15.625 g/ha) | damage to plant (100=total damage; 0=no damage) SETFA ([1]; Pre-Emergence at 62.5 g/ha) | damage to plant (100=total damage; 0=no damage) SETFA ([1]; Pre-Emergence at 250 g/ha) | damage to plant (100=total damage; 0=no damage) ABUTH ([2]; Pre-Emergence at 15.625 g/ha) | damage to plant (100=total damage; 0=no damage) ABUTH ([2]; Pre-Emergence at 62.5 g/ha) | damage to plant (100=total damage; 0=no damage) ABUTH ([2]; Pre-Emergence at 250 g/ha) | damage to plant (100=total damage; 0=no damage) ECHCG ([3]; Post-Emergence at 15.625 g/ha) | damage to plant (100=total damage; 0=no damage) ECHCG ([3]; Post-Emergence at 62.5 g/ha) | damage to plant (100=total damage; 0=no damage) ECHCG ([3]; Post-Emergence at 250 g/ha) | damage to plant (100=total damage; 0=no damage) IPOHE ([4]; Post-Emergence at 15.625 g/ha) | damage to plant (100=total damage; 0=no damage) IPOHE ([4]; Post-Emergence at 62.5 g/ha) | damage to plant (100=total damage; 0=no damage) IPOHE ([4]; Post-Emergence at 250 g/ha) | damage to plant (100=total damage; 0=no damage) AMARE ([5]; Post-Emergence at 15.625 g/ha) | damage to plant (100=total damage; 0=no damage) AMARE ([5]; Post-Emergence at 62.5 g/ha) | damage to plant (100=total damage; 0=no damage) AMARE ([5]; Post-Emergence at 250 g/ha) | damage to plant (100=total damage; 0=no damage) ABUTH ([6]; Post-Emergence at 15.625 g/ha) | damage to plant (100=total damage; 0=no damage) ABUTH ([6]; Post-Emergence at 62.5 g/ha) | other results |
| --- | --- | --- | --- | --- | --- | --- | --- | --- | --- | --- | --- | --- | --- | --- | --- | --- | --- | --- | --- | --- | --- |
| CCn1nc([C@@H]2CN(C)C(=O)[C@H]2C(=O)Nc2cccc(F)c2F)c2cccc(F)c21 [Compound 14] | 20 | 10 | 70 | 60 | 90 | 90 | 0 | 0 | 0 | 80 | 80 | 80 | 10 | 30 | 50 | 0 | 0 | 0 | 0 | 0 | damage to plant (100=total damage; 0=no damage) ABUTH ([6]; Post-Emergence at 250 g/ha): 0; damage to plant, TRZAW (wheat; rate 15, 20 DAA): 0; damage to plant, TRZAW (wheat; rate 30, 20 DAA): 0; damage to plant, TRZAW (wheat; rate 60, 20 DAA): 0; damage to plant, TRZAW (wheat; rate 130, 20 DAA): 0; damage to plant, TRZAW (wheat; rate 250, 20 DAA): 60; damage to plant, TRZAW (wheat; rate 500, 20 DAA): 90; damage to plant (100=total damage to plant; 0=no damage to plant), ZEAMX (maize; rate 130, evaluated after 15 d): 0; damage to plant (100=total damage to plant; 0=no damage to plant), ZEAMX (maize; rate 250, evaluated after 15 d): 0; damage to plant (100=total damage to plant; 0=no damage to plant), ZEAMX (maize; rate 500, evaluated after 15 d): 20 |
| CN1CC(c2cc(C(F)(F)F)n(C)n2)C(C(=O)Nc2cccc(F)n2)C1=O (racemic) [Compound 24] | 0 | 30 | 80 | 70 | 90 | 90 | 0 | 0 | 0 | 40 | 80 | 80 | 10 | 20 | 50 | 0 | 0 | 0 | 0 | 0 | damage to plant (100=total damage; 0=no damage) ABUTH ([6]; Post-Emergence at 250 g/ha): 0; damage to plant, TRZAW (wheat; rate 15, 20 DAA): 0; damage to plant, TRZAW (wheat; rate 30, 20 DAA): 0; damage to plant, TRZAW (wheat; rate 60, 20 DAA): 0; damage to plant, TRZAW (wheat; rate 130, 20 DAA): 0; damage to plant, TRZAW (wheat; rate 250, 20 DAA): 0; damage to plant, TRZAW (wheat; rate 500, 20 DAA): 10; damage to plant (100=total damage to plant; 0=no damage to plant), ZEAMX (maize; rate 130, evaluated after 15 d): 0; damage to plant (100=total damage to plant; 0=no damage to plant), ZEAMX (maize; rate 250, evaluated after 15 d): 0; damage to plant (100=total damage to plant; 0=no damage to plant), ZEAMX (maize; rate 500, evaluated after 15 d): 20 |
| CN1C[C@H](c2nn(C)c3c(F)cccc23)[C@@H](C(=O)Nc2cccc(F)c2F)C1=O [Compound 2] | 0 | 0 | 10 | 90 | 90 | 90 | 0 | 0 | 0 | 0 | 90 | 90 | 0 | 0 | 0 | 0 | 0 | 0 | 0 | 0 | damage to plant (100=total damage; 0=no damage) ABUTH ([6]; Post-Emergence at 250 g/ha): 0; damage to plant, TRZAW (wheat; rate 15, 20 DAA): 0; damage to plant, TRZAW (wheat; rate 30, 20 DAA): 0; damage to plant, TRZAW (wheat; rate 60, 20 DAA): 0; damage to plant, TRZAW (wheat; rate 130, 20 DAA): 10; damage to plant, TRZAW (wheat; rate 250, 20 DAA): 20; damage to plant, TRZAW (wheat; rate 500, 20 DAA): 80; damage to plant (100=total damage to plant; 0=no damage to plant), ZEAMX (maize; rate 130, evaluated after 15 d): 0; damage to plant (100=total damage to plant; 0=no damage to plant), ZEAMX (maize; rate 250, evaluated after 15 d): 0; damage to plant (100=total damage to plant; 0=no damage to plant), ZEAMX (maize; rate 500, evaluated after 15 d): 20 |
| CCn1nc([C@H]2CN(C)C(=O)[C@@H]2C(=O)Nc2cccc(F)c2F)c2cc(F)ccc21 [Compound 8] | 20 | 40 | 70 | 80 | 90 | 90 | 0 | 0 | 0 | 60 | 70 | 80 | 20 | 0 | 30 | 0 | 0 | 0 | 0 | 0 | damage to plant (100=total damage; 0=no damage) ABUTH ([6]; Post-Emergence at 250 g/ha): 0; damage to plant, TRZAW (wheat; rate 15, 20 DAA): 0; damage to plant, TRZAW (wheat; rate 30, 20 DAA): 0; damage to plant, TRZAW (wheat; rate 60, 20 DAA): 0; damage to plant, TRZAW (wheat; rate 130, 20 DAA): 0; damage to plant, TRZAW (wheat; rate 250, 20 DAA): 0; damage to plant, TRZAW (wheat; rate 500, 20 DAA): 0; damage to plant (100=total damage to plant; 0=no damage to plant), ZEAMX (maize; rate 130, evaluated after 15 d): 0; damage to plant (100=total damage to plant; 0=no damage to plant), ZEAMX (maize; rate 250, evaluated after 15 d): 0; damage to plant (100=total damage to plant; 0=no damage to plant), ZEAMX (maize; rate 500, evaluated after 15 d): 0 |
| CN1CC(c2cc(C(F)(F)F)n(C)n2)C(C(=O)Nc2ccc(F)nc2F)C1=O (racemic) [Compound 22] | 0 | 20 | 40 | 80 | 90 | 90 | 0 | 0 | 0 | 60 | 70 | 80 | 0 | 10 | 30 | 0 | 0 | 0 | 0 | 0 | damage to plant (100=total damage; 0=no damage) ABUTH ([6]; Post-Emergence at 250 g/ha): 0; damage to plant, TRZAW (wheat; rate 15, 20 DAA): 0; damage to plant, TRZAW (wheat; rate 30, 20 DAA): 0; damage to plant, TRZAW (wheat; rate 60, 20 DAA): 0; damage to plant, TRZAW (wheat; rate 130, 20 DAA): 0; damage to plant, TRZAW (wheat; rate 250, 20 DAA): 0; damage to plant, TRZAW (wheat; rate 500, 20 DAA): 10; damage to plant (100=total damage to plant; 0=no damage to plant), ZEAMX (maize; rate 130, evaluated after 15 d): 0; damage to plant (100=total damage to plant; 0=no damage to plant), ZEAMX (maize; rate 250, evaluated after 15 d): 0; damage to plant (100=total damage to plant; 0=no damage to plant), ZEAMX (maize; rate 500, evaluated after 15 d): 20 |
